In paper PMC5971061, “Differential Effects of Linkers on the Activity of Amphiphilic Tobramycin Antifungals” (Molecules : A Journal of Synthetic Chemistry and Natural …, 2018):
Converted amounts (≈) assume the structure as drawn. Where two headings read alike, the source gives them in different places.

Assays:
[1] = test system: C. albicans ATCC 10231 (strain A); assay: MIC, broth microdilution (CLSI M27-A3), yeast strain A; assay type: cell-based, Candida albicans; details: Candida albicans, ATCC10231; MIC-0, strain A, 35 °C 48 h
Description: (§1) The final concentrations of compounds 3, 4, 7a, 7b, 9, and 16, as well as that of TOB tested in this study ranged from 0.24–62.5 μg/mL. CAS was used as a positive control and the final concentrations tested for CAS ranged from 0.03–31.3 μg/mL. Briefly, overnight yeast cultures were grown in yeast peptone dextrose (YPD) broth and the cell density was adjusted to an OD600 of 0.12 (~1 × 10^6 CFU/mL) by using a spectrophotometer. Yeast cell suspensions were further diluted to achieve 1–5 × 10^3 CFU/mL in RPMI 1640 medium, and 100 μL of these yeast cells was added to 96-well microtiter plates containing RPMI 1640 medium and titrated compounds. Each test was performed in triplicate. The plates were incubated at 35 °C for 48 h.

[2] = test system: Candida glabrata clinical isolate CG2; assay: MIC, broth microdilution (CLSI M27-A3), CG2; assay type: cell-based; details: Nakaseomyces glabratus; MIC-0, CG2, 35 °C 48 h
Description: as §1

[3] = test system: Candida krusei ATCC 6258 (strain I); assay: MIC, broth microdilution (CLSI M27-A3), yeast strain I; assay type: cell-based; details: Pichia kudriavzevii, ATCC6258; MIC-0, strain I, 35 °C 48 h
Description: as §1

BEAS-2B cell line = assay: In vitro cytotoxicity assay (resazurin), BEAS-2B; assay type: cell-based, human; details: Homo sapiens, 24 h, resazurin
Description: Mammalian cytotoxicity assays were performed as previously described with minor modifications. The normal human bronchial epithelial cells BEAS-2B and the human lung carcinoma epithelial cells A549 were grown in DMEM containing 10% fetal bovine serum (FBS) and 1% antibiotics. The confluent cells were then trypsinized with 0.05% trypsin and 0.53 mM EDTA, and resuspended in fresh DMEM medium. The cells were transferred into 96-well microtiter plates at a density of 3000 cells/well and were grown for 24 h. The following day, the medium was replaced by a fresh culture medium containing serially diluted compounds 3, 4, 7a, 7b, and 9, as well as the parent drug TOB at final concentrations of 0.48–62.5 μg/mL or sterile ddH2O (negative control). The cells were incubated for an additional 24 h at 37 °C with 5% CO2 in a humidified incubator. To evaluate cell survival, each well was treated with 10 μL (25 μg/mL) of resazurin sodium salt (Sigma-Aldrich) for 4–6 h. Metabolically active cells can convert resazurin (blue) to the highly fluorescent dye resorufin (pink), which was detected at λ560 excitation and λ590 emission wavelengths by using a SpectraMax M5 plate reader. Triton X-100® (1% v/v) gave the complete loss of cell viability and was used as the positive control. The percentage survival rates were calculated by using the following formula: % cell survival = [(fluorescence of sample) − (fluorescence of blank)] × 100/[(fluorescence of negative control) − (fluorescence of blank)].

Hemolytic activity assay = assay type: cell-based, murine; details: mouse, murine red blood cells (mRBCs); for hemolysis at 1 h, 0.48 μg/mL / hemolysis at 1 h, 0.975 μg/mL / hemolysis at 1 h, 1.95 μg/mL / hemolysis at 1 h, 3.9 μg/mL / hemolysis at 1 h, 7.8 μg/mL / hemolysis at 1 h, 15.6 μg/mL / hemolysis at 1 h, 31.3 μg/mL / hemolysis at 1 h, 62.5 μg/mL: mRBCs, 37 °C 1 h, ± SDEV; for hemolysis at 1 h: at their MIC values against the Aspergillus strains
Description: The hemolytic activity of compounds 3, 4, 7a, 7b, and 9 as well as the parent compound TOB was determined by using previously described methods with minor modifications. Murine whole blood (1 mL) was suspended in 4 mL of PBS and centrifuged at 1000 rpm for 10 min at room temperature to obtain murine red blood cells (mRBCs). The mRBCs were washed four times in PBS and resuspended in the same buffer to a final concentration of 10^7 erythrocytes/mL. Two-fold serial dilutions of compounds 3, 4, 7a, 7b, and 9 were prepared using 100 μL of PBS buffer in Eppendorf tubes followed by the addition of 100 μL of mRBC suspension that made the final concentration of compounds and mRBCs to be 0.48–62.5 μg/mL and 5 × 10^6 erythrocytes/mL, respectively. The tubes were incubated at 37 °C for 1 h. The tubes with PBS buffer (200 μL) and Triton X-100® (1% v/v, 2 μL) served as the negative (blank) and positive controls, respectively. The percentage of hemolysis was calculated using the following equation: % hemolysis = [(absorbance of sample) − (absorbance of blank)] × 100/(absorbance of positive control).

[4] = test system: Candida glabrata clinical isolate CG1; assay: MIC, broth microdilution (CLSI M27-A3), CG1; assay type: cell-based; details: Nakaseomyces glabratus; MIC-0, CG1, 35 °C 48 h
Description: as §1

[5] = test system: Candida parapsilosis clinical isolate CP3; assay: MIC, broth microdilution (CLSI M27-A3), CP3; assay type: cell-based; details: MIC-0, CP3, 35 °C 48 h
Description: as §1

[6] = test system: Candida parapsilosis clinical isolate CP1; assay: MIC, broth microdilution (CLSI M27-A3), CP1; assay type: cell-based; details: Lodderomyces parapsilosis; MIC-0, CP1, 35 °C 48 h
Description: as §1

[7] = test system: Candida glabrata ATCC 2001 (strain H); assay: MIC, broth microdilution (CLSI M27-A3), yeast strain H; assay type: cell-based; details: Nakaseomyces glabratus, ATCC2001; MIC-0, strain H, 35 °C 48 h
Description: as §1

[8] = test system: Cryptococcus neoformans clinical isolate CN3; assay: MIC, broth microdilution (CLSI M27-A3), CN3; assay type: cell-based; details: MIC-0, CN3, 35 °C 48 h
Description: as §1

[9] = test system: nine non-albicans Candida strains (H-J, CG1-3, CP1-3); assay: MIC across the panel of nine non-albicans Candida strains; assay type: cell-based, Candida glabrata, Candida krusei, Candida parapsilosis
Description: as §1

[10] = test system: Aspergillus nidulans ATCC 38163 (strain L); assay: MIC, filamentous fungi (CLSI M38-A2), strain L; assay type: cell-based; details: MIC-0, strain L, 35 °C 72 h
Description: The spores were harvested from sporulating cultures growing on potato dextrose agar (PDA) by filtration through sterile glass wool and enumerated by using a hemocytometer (Hausser Scientific, Horsham, PA, USA) to obtain the desired inoculum size. Two-fold serial dilutions of compounds 3, 4, 7a, 7b, 9, and 16, as well as CAS and TOB were made in sterile 96-well microtiter plates to obtain the final concentration range of 0.24–62.5 μg/mL for TOB and TOB derivatives as well as 0.03–31.3 μg/mL for CAS in the RPMI 1640 medium. The spore suspensions were added to the wells to afford a final concentration of 5 × 10^5 spores/mL. The plates were incubated at 35 °C for 72 h. […] Each test was performed in triplicate.

[11] = test system: Cryptococcus neoformans clinical isolate CN1; assay: MIC, broth microdilution (CLSI M27-A3), CN1; assay type: cell-based; details: MIC-0, CN1, 35 °C 48 h
Description: as §1

[12] = Aspergillus nidulans, ATCC38163, 72 h, read-out: MIC

| MIC [1] | MIC [2] | MIC [3] | MIC [4] | MIC [5] | MIC [6] | MIC [7] | MIC [8] | MIC [9] | MIC [10, 12] | SMILES | IC50 (BEAS-2B cell line) | hemolysis at 1 h, 0.48 μg/mL (Hemolytic activity assay) | hemolysis at 1 h, 0.975 μg/mL (Hemolytic activity assay) | hemolysis at 1 h, 1.95 μg/mL (Hemolytic activity assay) | hemolysis at 1 h, 3.9 μg/mL (Hemolytic activity assay) | hemolysis at 1 h, 7.8 μg/mL (Hemolytic activity assay) | hemolysis at 1 h, 15.6 μg/mL (Hemolytic activity assay) | hemolysis at 1 h, 31.3 μg/mL (Hemolytic activity assay) | hemolysis at 1 h, 62.5 μg/mL (Hemolytic activity assay) | hemolysis at 1 h (Hemolytic activity assay) | also measured |
| --- | --- | --- | --- | --- | --- | --- | --- | --- | --- | --- | --- | --- | --- | --- | --- | --- | --- | --- | --- | --- | --- |
| 31.3 µg/mL (≈ 48.2 µM) | 15.6 µg/mL (≈ 24 µM) | 15.6 µg/mL (≈ 24 µM) | 15.6 µg/mL (≈ 24 µM) | 31.3 µg/mL (≈ 48.2 µM) | 31.3 µg/mL (≈ 48.2 µM) | 31.3 µg/mL (≈ 48.2 µM) | 0.975 µg/mL (≈ 1.5 µM) | 7.8 to 31.3 µg/mL (≈ 12 to 48.2 µM) | 1.95 to 3.9 µg/mL (≈ 3.01 to 6.01 µM) | CCCCCCCCCCCC(=O)NC[C@H]1O[C@H](O[C@@H]2[C@@H](O)[C@H](O[C@H]3O[C@H](CN)[C@@H](O)C[C@H]3N)[C@@H](N)C[C@H]2N)[C@H](O)[C@@H](N)[C@@H]1O [Compound 9, O-3-Amino-3,6-dideoxy-6-[(1-oxododecyl)amino]-α-D-glucopyranosyl-(1→6)-O-[2,6-diamino-2,3,6-trideoxy-α-D-ribo-hexopyranosyl-(1→4)]-2-deoxy-D-streptamine] | > 62.5 µg/mL | 0% | 0% | 2.5 ± 1.5% | 4.1 ± 1.5% | 10.1 ± 4.6% | 18.3 ± 5.4% | 26 ± 11.6% | 31.5 ± 1.5% | 4 to 32% | MIC [10]: 3.9 µg/mL (≈ 6.01 µM); MIC [11]: 0.975 µg/mL (≈ 1.5 µM) |
| 15.6 µg/mL (≈ 23.9 µM) | 7.8 µg/mL (≈ 12 µM) | 3.9 µg/mL (≈ 5.98 µM) | 15.6 µg/mL (≈ 23.9 µM) | 15.6 µg/mL (≈ 23.9 µM) | 15.6 µg/mL (≈ 23.9 µM) | 7.8 µg/mL (≈ 12 µM) | 0.48 µg/mL (≈ 0.736 µM) | 3.9 to 15.6 µg/mL (≈ 5.98 to 23.9 µM) | 1.95 to 3.9 µg/mL (≈ 2.99 to 5.98 µM) | CCCCCCCCCCCCSC[C@H]1O[C@H](O[C@@H]2[C@@H](O)[C@H](O[C@H]3O[C@H](CN)[C@@H](O)C[C@H]3N)[C@@H](N)C[C@H]2N)[C@H](O)[C@@H](N)[C@@H]1O [Compound 3, O-3-Amino-3-deoxy-6-S-dodecyl-6-thio-α-D-glucopyranosyl-(1→6)-O-[2,6-diamino-2,3,6-trideoxy-α-D-ribo-hexopyranosyl-(1→4)]-2-deoxy-D-streptamine] | 31.3 to 62.5 µg/mL (≈ 48 to 95.9 µM) | 0% | 2.5 ± 2.3% | 6 ± 3.5% | 12 ± 1.9% | 18.6 ± 6.6% | 46.2 ± 2.3% | 55.5 ± 3.9% | 67 ± 4.6% | 12 to 74% | MIC [10]: 3.9 µg/mL (≈ 5.98 µM); MIC [11]: 0.975 µg/mL (≈ 1.5 µM) |
| 15.6 µg/mL (≈ 22.8 µM) | 3.9 µg/mL (≈ 5.7 µM) | 7.8 µg/mL (≈ 11.4 µM) | 7.8 µg/mL (≈ 11.4 µM) | 7.8 µg/mL (≈ 11.4 µM) | 3.9 µg/mL (≈ 5.7 µM) | 15.6 µg/mL (≈ 22.8 µM) | 0.975 µg/mL (≈ 1.43 µM) | 3.9 to 15.6 µg/mL (≈ 5.7 to 22.8 µM) | 1.95 to 3.9 µg/mL (≈ 2.85 to 5.7 µM) | CCCCCCCCCCCCS(=O)(=O)C[C@H]1O[C@H](O[C@@H]2[C@@H](O)[C@H](O[C@H]3O[C@H](CN)[C@@H](O)C[C@H]3N)[C@@H](N)C[C@H]2N)[C@H](O)[C@@H](N)[C@@H]1O [Compound 4, O-3-Amino-3,6-dideoxy-6-(dodecylsulfonyl)-α-D-glucopyranosyl-(1→6)-O-[2,6-diamino-2,3,6-trideoxy-α-D-ribo-hexopyranosyl-(1→4)]-2-deoxy-D-streptamine] | > 62.5 µg/mL | 0% | 0% | 6.6 ± 3.5% | 6 ± 1.9% | 10.7 ± 3.1% | 15.3 ± 5% | 24.9 ± 2.3% | 31.2 ± 6.6% | 4 to 32% | MIC [10]: 3.9 µg/mL (≈ 5.7 µM); MIC [11]: 1.95 µg/mL (≈ 2.85 µM) |
| 3.9 µg/mL (≈ 5.68 µM) | 3.9 µg/mL (≈ 5.68 µM) | 3.9 µg/mL (≈ 5.68 µM) | 3.9 µg/mL (≈ 5.68 µM) | 7.8 µg/mL (≈ 11.4 µM) | 3.9 µg/mL (≈ 5.68 µM) | 7.8 µg/mL (≈ 11.4 µM) | 0.975 µg/mL (≈ 1.42 µM) | 1.95 to 7.8 µg/mL (≈ 2.84 to 11.4 µM) | 1.95 to 3.9 µg/mL (≈ 2.84 to 5.68 µM) | CCCCCCCCCCCCc1cn(C[C@H]2O[C@H](O[C@@H]3[C@@H](O)[C@H](O[C@H]4O[C@H](CN)[C@@H](O)C[C@H]4N)[C@@H](N)C[C@H]3N)[C@H](O)[C@@H](N)[C@@H]2O)nn1 [Compound 7b, O-3-Amino-3,6-dideoxy-6-(4-dodecyl-1H-1,2,3-triazol-1-yl)-α-D-glucopyranosyl-(1→6)-O-[2,6-diamino-2,3,6-trideoxy-α-D-ribo-hexopyranosyl-(1→4)]-2-deoxy-D-streptamine] | > 62.5 µg/mL | 0% | 0% | 14.8 ± 3.5% | 13.4 ± 6.2% | 24.6 ± 8.1% | 40.8 ± 5.4% | 55.5 ± 5.4% | 74.1 ± 0.8% | 12 to 74% | MIC [10]: 1.95 µg/mL (≈ 2.84 µM); MIC [11]: 0.48 µg/mL (≈ 0.699 µM) |
